The source of these data is US12030879B2, “Sulfonyl acetamides as NLRP3 inhibitors” (Inflazome Limited, priority 2018, dated 2024).

Counter-ions that a name gives are not always drawn.

A word on the IC50: it is the point on the concentration scale where inhibition reaches its midpoint. A high value points to a need for much substance.

The experiment deals with T1, NLRP3 (Homo sapiens, UniProt Q96P20).
T1 construct: Seed THP-1 cells (25,000 cells/well) containing 1.0 μg/ml LPS in 40 μl of RPMI medium; host or cells: THP-1 cells
T1 sequence (Q96P20 whole entry): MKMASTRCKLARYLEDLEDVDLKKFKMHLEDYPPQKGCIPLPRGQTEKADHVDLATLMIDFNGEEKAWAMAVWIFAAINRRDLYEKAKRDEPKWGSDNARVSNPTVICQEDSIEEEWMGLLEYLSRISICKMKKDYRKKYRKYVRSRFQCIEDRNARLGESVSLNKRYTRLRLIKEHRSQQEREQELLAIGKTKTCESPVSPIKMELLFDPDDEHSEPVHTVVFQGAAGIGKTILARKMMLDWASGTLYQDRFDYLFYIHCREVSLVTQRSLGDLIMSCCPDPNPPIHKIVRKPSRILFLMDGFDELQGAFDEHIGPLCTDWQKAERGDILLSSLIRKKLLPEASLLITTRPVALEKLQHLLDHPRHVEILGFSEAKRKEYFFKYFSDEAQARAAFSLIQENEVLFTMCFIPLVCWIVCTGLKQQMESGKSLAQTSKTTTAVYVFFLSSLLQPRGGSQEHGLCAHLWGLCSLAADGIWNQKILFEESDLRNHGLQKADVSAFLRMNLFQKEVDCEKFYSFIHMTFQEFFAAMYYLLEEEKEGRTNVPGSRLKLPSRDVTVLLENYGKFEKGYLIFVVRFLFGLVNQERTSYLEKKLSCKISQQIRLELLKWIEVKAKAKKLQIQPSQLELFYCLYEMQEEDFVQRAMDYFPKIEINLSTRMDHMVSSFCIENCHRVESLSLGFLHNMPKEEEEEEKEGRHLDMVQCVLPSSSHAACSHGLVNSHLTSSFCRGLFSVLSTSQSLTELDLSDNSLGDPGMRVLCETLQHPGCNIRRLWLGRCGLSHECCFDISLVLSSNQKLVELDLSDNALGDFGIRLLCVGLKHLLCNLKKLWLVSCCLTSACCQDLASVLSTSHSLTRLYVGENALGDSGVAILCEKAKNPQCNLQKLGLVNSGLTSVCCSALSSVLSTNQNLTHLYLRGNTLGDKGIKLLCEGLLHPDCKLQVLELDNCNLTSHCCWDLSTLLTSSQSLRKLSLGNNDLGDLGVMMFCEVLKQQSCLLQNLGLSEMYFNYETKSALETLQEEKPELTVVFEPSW
The experiment in a line: THP-1 cells pyroptosis assay. In kind it is cell-based. Conditions: LPS 1 μg/ml, compound 3 hrs, nigericin 5 μM 1 hr, resazurin readout. How it is done: THP-1 cells (ATCC #TIB-202) were grown in RPMI containing L-glutamine (Gibco #11835) supplemented with 1 mM sodium pyruvate (Sigma #S8636) and penicillin (100 units/ml)/streptomycin (0.1 mg/ml) (Sigma #P4333) in 10% Fetal Bovine Serum (FBS) (Sigma #F0804). The cells were routinely passaged and grown to confluency (10^6 cells/ml). On the day of the experiment, THP-1 cells were harvested and resuspended into RPMI medium (without FBS). The cells were then counted and viability (>90%) checked by Trypan blue (Sigma #T8154). Appropriate dilutions were made to give a concentration of 625,000 cells/ml. To this diluted cell solution was added LPS (Sigma #L4524) to give a 1 μg/ml Final Assay Concentration (FAC). 40 μl of the final preparation was aliquoted into each well of a 96-well plate. The plate thus prepared was used for compound screening.
The following method step-by-step assay was followed for compound screening. • 1. Seed THP-1 cells (25,000 cells/well) containing 1.0 μg/ml LPS in 40 μl of RPMI medium (without FBS) in 96-well, black walled, clear bottom cell culture plates coated with poly-D-lysine (VWR #734-0317) • 2. Add 5 μl compound (8 points half-log dilution, with 10 μM top dose) or vehicle (DMSO 0.1% FAC) to the appropriate wells • 3. Incubate for 3 hrs at 37° C., 5% CO2 • 4. Add 5 μl nigericin (Sigma #N7143) (FAC 5 μM) to all wells • 5. Incubate for 1 hr at 37° C., 5% CO2 • 6. At the end of the incubation period, spin plates at 300×g for 3 mins and remove supernatant • 7. Then add 50 μl of resazurin (Sigma #R7017)(FAC 100 μM resazurin in RPMI medium without FBS) and incubate plates for a further 1-2 hrs at 37° C. and 5% CO2 • 8. Plates were read in an Envision reader at Ex 560 nm and Em 590 nm • 9. IC50 data is fitted to a non-linear regression equation (log inhibitor vs response-variable slope 4-parameters) 96-well Plate Map
(In general: Resazurin is reduced to fluorescent resorufin, in cell work by metabolically active cells.)
The compound `CC(C)c1cc(F)cc(-c2ccncc2)c1CC(=O)NS(=O)(=O)c1ccc(CN(C)C)cc1` [Example 36, N-((4-((Dimethylamino)methyl)phenyl)sulfonyl)-2-(4-fluoro-2-isopropyl-6-(pyridin-4-yl)phenyl)acetamide] came in with an IC50 of no more than 5 µM.
In the case of `COc1cc(-c2cc(F)cc(C(C)C)c2CC(=O)NS(=O)(=O)c2ccc(C#N)cc2C)ccn1` [Example 37, N-((4-Cyano-2-methylphenyl)sulfonyl)-2-(4-fluoro-2-isopropyl-6-(2-methoxypyridin-4-yl)phenyl)acetamide], the IC50 was no more than 5 µM.
`COc1cc(-c2cc(F)cc(C(C)C)c2CC(=O)NS(=O)(=O)c2cccc(CO)c2)ccn1` [Example 38, 2-(4-Fluoro-2-isopropyl-6-(2-methoxypyridin-4-yl)phenyl)-N-((3-(hydroxymethyl)phenyl)sulfonyl)acetamide, potassium salt] registered an IC50 of no more than 1 µM.
Then `COC(=O)c1ccc(S(=O)(=O)NC(=O)Cc2c(-c3ccnc(OC)c3)cc(F)cc2C(C)C)c(C)c1` [Example 39, Methyl 4-(N-(2-(4-fluoro-2-isopropyl-6-(2-methoxypyridin-4-yl)phenyl)acetyl)sulfamoyl)-3-methylbenzoate], with no more than 10 µM.
Then `COc1cc(-c2cc(F)cc(C(C)C)c2CC(=O)NS(=O)(=O)c2cc(C(C)(C)O)co2)ccn1` [Example 40, 2-(4-Fluoro-2-isopropyl-6-(2-methoxypyridin-4-yl)phenyl)-N-((4-(2-hydroxypropan-2-yl)furan-2-yl)sulfonyl)acetamide], with no more than 0.5 µM; and `COc1cc(-c2cc(F)cc(C(C)C)c2CC(=O)NS(=O)(=O)C(C)c2ccccc2)ccn1` (stereo not shown) [Example 41, 2-(4-Fluoro-2-isopropyl-6-(2-methoxypyridin-4-yl)phenyl)-N-((1-phenylethyl)sulfonyl)acetamide], with no more than 10 µM.
Regarding `COc1cc(-c2cc(F)cc(C(C)C)c2CC(=O)NS(=O)(=O)c2cnn(C)c2)ccn1` [Example 42, 2-(4-Fluoro-2-isopropyl-6-(2-methoxypyridin-4-yl)phenyl)-N-((1-methyl-1H-pyrazol-4-yl)sulfonyl)acetamide], the IC50 is no more than 10 µM.
Turning to `COc1cc(-c2cc(F)cc(C(C)C)c2CC(=O)NS(=O)(=O)c2ccc(C(C)=O)cc2)ccn1` [Example 43, N-((4-Acetylphenyl)sulfonyl)-2-(4-fluoro-2-isopropyl-6-(2-methoxypyridin-4-yl)phenyl)acetamide], the IC50 is no more than 5 µM.
To `COc1cc(-c2ccc3c(c2CC(=O)NS(=O)(=O)N(C)C2CCN(C)C2)CCC3)ccn1` (stereo not shown) [Example 55, 2-(5-(2-Methoxypyridin-4-yl)-2,3-dihydro-H-inden-4-yl)-N—(N-methyl-N-(1-methylpyrrolidin-3-yl)sulfamoyl)acetamide, potassium salt] belongs no more than 5 µM; to `CCN(CC)CCCS(=O)(=O)NC(=O)Cc1c(-c2ccnc(OC)c2)ccc2c1CCC2` [Example 56, N-((3-(Diethylamino)propyl)sulfonyl)-2-(5-(2-methoxypyridin-4-yl)-2,3-dihydro-1H-inden-4-yl)acetamide], no more than 10 µM.
Then `CCN(CC)CCCS(=O)(=O)NC(=O)Cc1c(-c2ccnc(OC)c2)cc(F)cc1C(C)C` [Example 57, N-((3-(Diethylamino)propyl)sulfonyl)-2-(4-fluoro-2-isopropyl-6-(2-methoxypyridin-4-yl)phenyl)acetamide, potassium salt], with no more than 5 µM; and `COc1cc(-c2cc(F)cc(C(C)C)c2CC(=O)NS(=O)(=O)c2cc(C(=O)N(C)C)n(C)n2)ccn1` [Example 58, 3-(N-(2-(4-Fluoro-2-isopropyl-6-(2-methoxypyridin-4-yl)phenyl)acetyl)sulfamoyl)-N,N,1-trimethyl-1H-pyrazole-5-carboxamide], with no more than 1 µM.
Then `CC(C)c1cc(F)cc(-c2cccnc2)c1CC(=O)NS(=O)(=O)c1cc(C(=O)N(C)C)n(C)n1` [Example 59, 3-(N-(2-(4-Fluoro-2-isopropyl-6-(pyridin-3-yl)phenyl)acetyl)sulfamoyl)-N,N,1-trimethyl-1H-pyrazole-5-carboxamide], with no more than 5 µM.
